What all share (format): biochemical
Assay [1] concerns the target T1, HDAC6 enzyme (Homo sapiens, UniProt Q9UBN7).
T1 construct: transducing full length HDAC1 and HDAC6 genes into Sf-9 insect cells; GST; purchased SignalChem; host or cells: Sf-9 insect cells
T1 sequence (Q9UBN7 1-1215): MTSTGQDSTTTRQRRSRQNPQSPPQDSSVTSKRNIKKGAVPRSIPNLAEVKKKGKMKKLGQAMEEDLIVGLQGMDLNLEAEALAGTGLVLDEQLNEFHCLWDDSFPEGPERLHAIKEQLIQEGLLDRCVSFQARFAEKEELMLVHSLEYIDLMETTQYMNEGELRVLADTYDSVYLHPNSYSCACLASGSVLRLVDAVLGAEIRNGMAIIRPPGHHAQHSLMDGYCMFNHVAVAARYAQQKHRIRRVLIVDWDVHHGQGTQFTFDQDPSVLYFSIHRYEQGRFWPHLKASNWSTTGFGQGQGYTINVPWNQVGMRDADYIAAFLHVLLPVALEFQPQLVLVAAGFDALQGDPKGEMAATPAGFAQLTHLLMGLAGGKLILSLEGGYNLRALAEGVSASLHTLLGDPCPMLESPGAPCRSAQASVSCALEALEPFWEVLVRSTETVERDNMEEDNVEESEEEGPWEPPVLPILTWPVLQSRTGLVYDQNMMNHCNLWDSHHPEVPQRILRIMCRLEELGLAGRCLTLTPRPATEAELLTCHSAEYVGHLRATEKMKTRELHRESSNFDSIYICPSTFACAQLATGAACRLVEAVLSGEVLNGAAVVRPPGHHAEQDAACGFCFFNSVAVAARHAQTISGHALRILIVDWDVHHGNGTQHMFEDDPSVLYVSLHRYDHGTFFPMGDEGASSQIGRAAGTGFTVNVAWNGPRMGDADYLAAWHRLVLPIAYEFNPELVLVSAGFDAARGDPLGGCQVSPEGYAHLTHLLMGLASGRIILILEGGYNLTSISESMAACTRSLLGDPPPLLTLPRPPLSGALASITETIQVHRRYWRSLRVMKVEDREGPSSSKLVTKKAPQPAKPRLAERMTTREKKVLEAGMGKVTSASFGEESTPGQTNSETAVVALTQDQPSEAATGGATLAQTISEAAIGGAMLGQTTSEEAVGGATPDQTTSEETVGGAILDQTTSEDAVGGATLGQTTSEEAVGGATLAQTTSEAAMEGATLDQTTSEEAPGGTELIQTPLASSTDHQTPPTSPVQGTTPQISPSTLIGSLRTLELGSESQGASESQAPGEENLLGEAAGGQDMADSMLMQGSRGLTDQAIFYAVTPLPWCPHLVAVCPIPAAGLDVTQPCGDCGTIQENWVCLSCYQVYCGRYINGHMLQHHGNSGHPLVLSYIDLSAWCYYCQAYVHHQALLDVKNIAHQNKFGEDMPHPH
The experiment in a line: HDAC1/6 Enzyme Inhibitory Assay (HDAC-Glo I/II Assay kit), HDAC6. To be noted: 1 μM test compound; wells without enzyme = 100% inhibition; read-out: HDAC6 inhibitory rate (%) (1 μM). In outline:
(§1)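 Full-length human HDAC1 or HDAC6, GST-purified from Sf-9 cells, was preincubated with compound for 60 min at room temperature in Tris-HCl pH 7.5 buffer with MgCl2, KCl, NaCl, glutathione and Tween-20. HDAC-Glo I/II substrate-developer was then added and reacted for 20 min before luminescence was read. Inhibition was set relative to no-enzyme wells as 100% inhibition.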

Assay [2] has as its target T2, HDAC1 enzyme (Homo sapiens, UniProt Q13547).
T2 construct: transducing full length HDAC1 and HDAC6 genes into Sf-9 insect cells; GST; purchased SignalChem; host or cells: Sf-9 insect cells
The experiment in a line: HDAC1/6 Enzyme Inhibitory Assay (HDAC-Glo I/II Assay kit), HDAC1. To be noted: 1 μM test compound; wells without enzyme = 100% inhibition; read-out: HDAC1 inhibitory rate (%) (1 μM). Summed up:
as §1

In assay [3] the target is T3, HDAC9 enzyme (Homo sapiens, UniProt Q9UKV0).
T3 construct: transducing full length HDAC9 gene into Sf-9 insect cells; made in house; host or cells: Sf-9 insect cells
In words: HDAC9 Enzyme Inhibitory Assay (HDAC-Glo class IIa). To be noted: 1 μM test compound; wells without enzyme = 100% inhibition; read-out: HDAC9 inhibitory rate (%) (1 μM). In outline:
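Full-length human HDAC9 from Sf-9 cells, Ni-NTA purified, preincubated with compound for 60 min at room temperature in Tris-HCl pH 7.5 buffer (MgCl2, KCl, NaCl, glutathione, Tween-20). HDAC-Glo class IIa substrate-developer added; luminescence read after 20 min, with no-enzyme wells defining 100% inhibition.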

Consider 16 compounds from patent US10308643B2, “Heterocyclic compound” (Takeda Pharmaceutical Company Limited, priority 2015, dated 2019).

T2 sequence (Q13547 whole entry): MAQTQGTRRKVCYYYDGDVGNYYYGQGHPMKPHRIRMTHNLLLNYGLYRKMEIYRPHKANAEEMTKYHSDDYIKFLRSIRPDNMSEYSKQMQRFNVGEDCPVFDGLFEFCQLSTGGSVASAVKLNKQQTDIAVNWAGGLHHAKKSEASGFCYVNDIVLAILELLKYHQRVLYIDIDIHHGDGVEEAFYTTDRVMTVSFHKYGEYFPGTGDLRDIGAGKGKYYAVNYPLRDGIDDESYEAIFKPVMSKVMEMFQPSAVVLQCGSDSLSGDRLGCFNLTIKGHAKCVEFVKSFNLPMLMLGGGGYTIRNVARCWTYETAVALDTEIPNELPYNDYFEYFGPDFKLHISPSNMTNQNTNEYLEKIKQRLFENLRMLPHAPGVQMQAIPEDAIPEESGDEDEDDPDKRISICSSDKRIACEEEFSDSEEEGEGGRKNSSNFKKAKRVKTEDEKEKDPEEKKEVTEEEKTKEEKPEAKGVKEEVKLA
T3 sequence (Q9UKV0 whole entry, species assumed): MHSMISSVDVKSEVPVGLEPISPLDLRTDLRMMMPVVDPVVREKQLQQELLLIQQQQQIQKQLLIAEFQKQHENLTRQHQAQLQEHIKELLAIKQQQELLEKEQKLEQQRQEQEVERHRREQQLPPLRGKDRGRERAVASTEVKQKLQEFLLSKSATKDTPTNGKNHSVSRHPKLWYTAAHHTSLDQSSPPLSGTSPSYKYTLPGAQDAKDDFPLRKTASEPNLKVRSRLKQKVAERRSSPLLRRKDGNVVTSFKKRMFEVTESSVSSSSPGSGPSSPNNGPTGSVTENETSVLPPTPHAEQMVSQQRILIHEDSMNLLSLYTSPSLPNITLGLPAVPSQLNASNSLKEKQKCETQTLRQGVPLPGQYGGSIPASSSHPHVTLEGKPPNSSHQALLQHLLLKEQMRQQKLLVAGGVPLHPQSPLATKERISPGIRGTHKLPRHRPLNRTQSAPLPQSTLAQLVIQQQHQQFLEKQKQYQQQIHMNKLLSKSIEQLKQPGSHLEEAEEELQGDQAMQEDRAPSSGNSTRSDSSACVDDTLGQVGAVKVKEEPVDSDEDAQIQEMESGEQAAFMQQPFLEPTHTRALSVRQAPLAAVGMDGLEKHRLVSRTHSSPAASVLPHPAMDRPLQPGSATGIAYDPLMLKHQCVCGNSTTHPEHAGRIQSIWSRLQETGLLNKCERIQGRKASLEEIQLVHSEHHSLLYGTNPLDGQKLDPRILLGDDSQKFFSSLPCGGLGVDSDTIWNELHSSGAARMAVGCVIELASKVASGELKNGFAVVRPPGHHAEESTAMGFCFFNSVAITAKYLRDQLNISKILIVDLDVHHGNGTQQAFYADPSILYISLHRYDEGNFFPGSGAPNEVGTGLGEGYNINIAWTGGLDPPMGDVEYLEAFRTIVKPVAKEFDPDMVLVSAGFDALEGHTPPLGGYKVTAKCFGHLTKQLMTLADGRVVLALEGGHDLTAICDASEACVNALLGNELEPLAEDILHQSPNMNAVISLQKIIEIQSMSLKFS

Consider `CC(C)(C)OC(=O)N1CC(C)(C(=O)N[C@@H]2CCCC[C@H]2N2Cc3ccc(-c4noc(C(F)(F)F)n4)cc3C2=O)C1` [Example 197, tert-butyl 3-methyl-3-(((1R,2R)-2-(1-oxo-6-(5-(trifluoromethyl)-1,2,4-oxadiazol-3-yl)-1,3-dihydro-2H-isoindol-2-yl)cyclohexyl)carbamoyl)azetidine-1-carboxylate], for which the inhibition at 1 µM in assay [1] is 100%; in assay [2], 6%; in assay [3] it was 48%.

Take `O=C1CC[C@H](C(=O)N[C@@H]2CCCC[C@H]2N2Cc3ccc(-c4noc(C(F)(F)F)n4)cc3C2=O)N1` [Example 92, 5-oxo-N-((1R,2R)-2-(1-oxo-6-(5-(trifluoromethyl)-1,2,4-oxadiazol-3-yl)-1,3-dihydro-2H-isoindol-2-yl)cyclohexyl)-D-prolinamide]: the inhibition at 1 µM in assay [1] is 96%; in assay [2], 0%; in assay [3], 23%.

`CC1(C(=O)N[C@@H]2CCCC[C@H]2N2Cc3ccc(-c4noc(C(F)(F)F)n4)cc3C2=O)COC1` [Example 42, 3-methyl-N-((1R,2R)-2-(1-oxo-6-(5-(trifluoromethyl)-1,2,4-oxadiazol-3-yl)-1,3-dihydro-2H-isoindol-2-yl)cyclohexyl)oxetane-3-carboxamide]: the inhibition at 1 µM in assay [1] was determined as 100%; in assay [2], 15%; in assay [3], 41%.

For `O=C(N[C@@H]1CCCC[C@H]1N1Cc2ncc(-c3noc(C(F)(F)F)n3)cc2C1=O)C1CC1` [Example 84, N-((1R,2R)-2-(5-oxo-3-(5-(trifluoromethyl)-1,2,4-oxadiazol-3-yl)-5,7-dihydro-6H-pyrrolo[3,4-b]pyridin-6-yl)cyclohexyl) cyclopropanecarboxamide], the results for the inhibition at 1 µM in assay [1], in assay [2] and in assay [3] were 102%, 18% and 85%, respectively.

`CC1(C(=O)N[C@@H]2CCCC[C@H]2N2Cc3ccc(-c4noc(C(F)(F)F)n4)cc3C2=O)CNC1` [Example 194, 3-methyl-N-((1R,2R)-2-(1-oxo-6-(5-(trifluoromethyl)-1,2,4-oxadiazol-3-yl)-1,3-dihydro-2H-isoindol-2-yl)cyclohexyl)azetidine-3-carboxamide]: the inhibition at 1 µM was 100% in assay [1], 3% in assay [2] and 26% in assay [3].

For the compound `O=C(N[C@@H]1CCCC[C@H]1N1Cc2ccc(-c3noc(C(F)(F)F)n3)cc2C1=O)C1CC1(F)F` (stereo partly drawn) [Example 105, 2,2-difluoro-N-((1R,2R)-2-(1-oxo-6-(5-(trifluoromethyl)-1,2,4-oxadiazol-3-yl)-1,3-dihydro-2H-isoindol-2-yl)cyclohexyl) cyclopropanecarboxamide], the inhibition at 1 µM is 100% in assay [1], 7% in assay [2] and 50% in assay [3].

Take `CC1(C(=O)N[C@H]2CCC[C@@H]2N2Cc3ccc(-c4noc(C(F)(F)F)n4)cc3C2=O)COC1` [Example 152, 3-methyl-N-((1S,2S)-2-(1-oxo-6-(5-(trifluoromethyl)-1,2,4-oxadiazol-3-yl)-1,3-dihydro-2H-isoindol-2-yl)cyclopentyl)oxetane-3-carboxamide]: the inhibition at 1 µM in assay [1] is 31%; in assay [2], 13%; in assay [3], 38%.

As for `O=C1CC(C(=O)N[C@@H]2CCCCC2N2Cc3ccc(-c4noc(C(F)(F)F)n4)cc3C2=O)CN1` (stereo in doubt) [Example 131, (3R)-5-oxo-N-((1R,2R)-2-(1-oxo-6-(5-(trifluoromethyl)-1,2,4-oxadiazol-3-yl)-1,3-dihydro-2H-isoindol-2-yl)cyclohexyl)pyrrolidine-3-carboxamide], the results for the inhibition at 1 µM in assay [1], in assay [2] and in assay [3] were 88%, 0% and 31%, respectively.

As to `O=C(N[C@@H]1CCCC[C@H]1N1Cc2ccc(-c3noc(C(F)(F)F)n3)cc2C1=O)N1CC(F)C1` [Example 187, 3-fluoro-N-((1R,2R)-2-(1-oxo-6-(5-(trifluoromethyl)-1,2,4-oxadiazol-3-yl)-1,3-dihydro-2H-isoindol-2-yl)cyclohexyl)azetidine-1-carboxamide], the figures for the inhibition at 1 µM in assay [1], in assay [2] and in assay [3] were 99%, 9% and 29%, respectively.

Take `Cc1cc([C@@H]2CNCC[C@H]2N2Cc3ccc(-c4noc(C(F)(F)F)n4)cc3C2=O)ccc1Cl` (relative stereo) [Example 57, 2-(trans-3-(4-chloro-3-methylphenyl)piperidin-4-yl)-6-(5-(trifluoromethyl)-1,2,4-oxadiazol-3-yl)isoindolin-1-one]: the inhibition at 1 µM in assay [1] was found to be 94%; in assay [2] it was 93%; in assay [3] it was 99%.

On to `O=C(N[C@@H]1CCCC[C@H]1N1Cc2ccc(-c3noc(C(F)(F)F)n3)cc2C1=O)[C@H]1CC1(F)F` [Example 148, (1R)-2,2-difluoro-N-((1R,2R)-2-(1-oxo-6-(5-(trifluoromethyl)-1,2,4-oxadiazol-3-yl)-1,3-dihydro-2H-isoindol-2-yl)cyclohexyl) cyclopropanecarboxamide], for which the inhibition at 1 µM in assay [1] was determined as 100%; in assay [2], 8%; in assay [3], 82%.

Take `CCNC(=O)N1CC[C@@H](N2Cc3ccc(-c4noc(C(F)(F)F)n4)cc3C2=O)[C@H](c2ccccc2)C1` [Example 44, (3R,4R)-N-ethyl-4-(1-oxo-6-(5-(trifluoromethyl)-1,2,4-oxadiazol-3-yl)-1,3-dihydro-2H-isoindol-2-yl)-3-phenylpiperidine-1-carboxamide]: the inhibition at 1 µM in assay [1] turned out to be 98%; in assay [2] it was 88%; in assay [3], 95%.

On to `O=C(N[C@@H]1CCCC[C@H]1N1Cc2ccc(-c3noc(C(F)(F)F)n3)cc2C1=O)C1CC1F` (stereo partly drawn) [Example 132, 2-fluoro-N-((1R,2R)-2-(1-oxo-6-(5-(trifluoromethyl)-1,2,4-oxadiazol-3-yl)-1,3-dihydro-2H-isoindol-2-yl)cyclohexyl)cyclopropanecarboxamide], for which the results for the inhibition at 1 µM in assay [1], in assay [2] and in assay [3] were 99%, 5% and 55%, respectively.

Turning to `Cn1cncc1C(=O)N[C@@H]1CCCC[C@H]1N1Cc2ccc(-c3noc(C(F)(F)F)n3)cc2C1=O` [Example 110, 1-methyl-N-((1R,2R)-2-(1-oxo-6-(5-(trifluoromethyl)-1,2,4-oxadiazol-3-yl)-1,3-dihydro-2H-isoindol-2-yl)cyclohexyl)-1H-imidazole-5-carboxamide], the values for the inhibition at 1 µM in assay [1], in assay [2] and in assay [3] were 99%, 18% and 73%, respectively.

In the case of `CC(=O)N1CC[C@H](N2Cc3ccc(-c4noc(C(F)(F)F)n4)cc3C2=O)[C@H](c2ccccc2)C1` [Example 21, 2-((3R,4S)-1-acetyl-3-phenylpiperidin-4-yl)-6-(5-(trifluoromethyl)-1,2,4-oxadiazol-3-yl)isoindolin-1-one], the inhibition at 1 µM in assay [1] stood at 93%; in assay [2], 8%; in assay [3], 80%.

In the case of `COC1CN(C(=O)N[C@@H]2CCCC[C@H]2N2Cc3ccc(-c4noc(C(F)(F)F)n4)cc3C2=O)C1` [Example 163, 3-methoxy-N-((1R,2R)-2-(1-oxo-6-(5-(trifluoromethyl)-1,2,4-oxadiazol-3-yl)-1,3-dihydro-2H-isoindol-2-yl)cyclohexyl)azetidine-1-carboxamide], the inhibition at 1 µM in assay [1] turned out to be 95%; in assay [2] it was 1%; in assay [3] it was 32%.
